Data from patent publication US9120749B2, “Quinoline derivatives and MELK inhibitors containing the same” (ONCOTHERAPY SCIENCE, INC., priority 2010, dated 2015).
Counter-ions that a name gives are not always drawn. Like-named read-outs stand apart in the source and are kept apart here.

How the values were obtained:
HT-1197 cells = assay: Cell-based assay: anti-proliferative activity, Cell Counting Kit-8, 72 hours (HT-1197, negative control without MELK expression); conditions: HT1197 cells, no MELK expression (negative control), Cell Counting Kit-8 at 72 hours
How it was run: (§1)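 First, lysates underwent western blotting with anti-MELK antibody to establish expression. Next, cells went into 96-well plates. Then candidate inhibitors were added. Finally, viability was determined by CCK-8 at 72 h and IC50 computed.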

MELK = MELK (Homo sapiens, UniProt Q14680); assay: Kinase assay: MELK activity, phosphorylation of FITC-labeled histone H3 peptide measured by IMAP fluorescence polarization; assay type: biochemical; conditions: 50 micro-M ATP, FITC-labeled histone H3 peptide substrate, IMAP fluorescence polarization, read-out: IC50 (μM) (kinase assay)
Sequence of MELK (Q14680 whole entry, looked up): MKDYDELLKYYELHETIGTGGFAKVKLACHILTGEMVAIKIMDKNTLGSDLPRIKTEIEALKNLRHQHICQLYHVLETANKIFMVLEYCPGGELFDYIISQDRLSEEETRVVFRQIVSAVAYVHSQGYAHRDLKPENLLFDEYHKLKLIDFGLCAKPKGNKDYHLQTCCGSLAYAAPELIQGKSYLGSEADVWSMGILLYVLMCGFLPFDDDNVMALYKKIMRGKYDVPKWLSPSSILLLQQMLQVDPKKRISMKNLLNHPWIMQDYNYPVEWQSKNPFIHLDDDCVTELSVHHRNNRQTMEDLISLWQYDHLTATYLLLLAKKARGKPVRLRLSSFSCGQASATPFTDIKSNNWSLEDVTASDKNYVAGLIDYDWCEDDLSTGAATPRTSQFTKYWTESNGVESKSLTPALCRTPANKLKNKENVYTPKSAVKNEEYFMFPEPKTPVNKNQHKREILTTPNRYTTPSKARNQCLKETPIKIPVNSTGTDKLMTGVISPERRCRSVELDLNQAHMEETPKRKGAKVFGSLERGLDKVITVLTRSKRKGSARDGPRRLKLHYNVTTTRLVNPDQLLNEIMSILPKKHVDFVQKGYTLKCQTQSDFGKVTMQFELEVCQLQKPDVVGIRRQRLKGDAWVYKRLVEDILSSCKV
How it was run: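 Kinase reactions ran with or without test compound (final DMSO 1%) on a fluorescein-tagged H3 peptide. Progressive binding solution was added to terminate them. After a half-hour room-temperature incubation, polarization was measured.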

T47D cells = assay: Cell-based assay: anti-proliferative activity, Cell Counting Kit-8, 72 hours (T47D); conditions: MELK-expressing, Cell Counting Kit-8 at 72 hours
How it was run: as §1

BT-549 cells = assay: Cell-based assay: anti-proliferative activity, Cell Counting Kit-8, 72 hours (BT-549); conditions: BT549 cells, MELK-expressing, Cell Counting Kit-8 at 72 hours
Method: To evaluate the expression status of MELK in several cell lines, western blot analysis was performed using crude cell lysate collected from those cells. Anti-MELK antibody (clone 31, BD Biosciences) was used to visualize the expression.
Active candidate inhibitors against MELK were evaluated for their target-specific cytotoxicity using T47D, A549, BT-549, and HT-1197 cells was used for negative control. 100 micro-L of cell suspension was seeded onto 96-well microtiter plate (ViewPlate-96FTC, PerkinElmer). The initial cell concentration of T47D, A549, BT-549, and HT-1197 were 3,000 cells/well, 2,000 cells/well and 2,500 cells/well, respectively. Cellular growth was determined using Cell Counting Kit-8 (DOJINDO) at 72 hours after the exposure of the candidate inhibitors. […] Accurate IC50 values were calculated as described previously.

A549 cells = assay: Cell-based assay: anti-proliferative activity, Cell Counting Kit-8, 72 hours (A549); conditions: MELK-expressing, Cell Counting Kit-8 at 72 hours
How it was run: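 Cell Counting Kit-8 read-out of A549 growth after 72 hours of inhibitor exposure, cells plated in 96-well format. Values reported as IC50.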

Structure (SMILES)	IC50 (HT-1197 cells; Homo sapiens, HT1197, 72 h)	IC50 (MELK)	IC50 (T47D cells; Homo sapiens, T47D, 72 h)	IC50 (BT-549 cells; Homo sapiens, BT-549, 72 h)	IC50 (A549 cells; Homo sapiens, A549, 72 h)	IC50 (HT-1197 cells; dihydrochloride)	IC50 (MELK; dihydrochloride)	IC50 (T47D cells; dihydrochloride)	IC50 (BT-549 cells; dihydrochloride)	IC50 (A549 cells; dihydrochloride)	IC50 (A549 cells)
CC(C)C(=O)c1cnc2ccc(-c3cc(F)c(O)c(Cl)c3)cc2c1N[C@H]1CC[C@H](N)CC1 [Example 205, 1-{4-[trans-4-Aminocyclohexylamino]-6-(3-chloro-5-fluoro-4-hydroxyphenyl)quinolin-3-yl}-2-methylpropan-1-one]	2.4 µM	0.01 µM	0.066 µM	0.15 µM	0.6 µM	–	–	–	–	–	–
O=C(c1cnc2ccc(-c3ccc(O)c(Cl)c3)cc2c1NCCN1CCNCC1)C1CC1 [Example 215, {6-(3-Chloro-4-hydroxyphenyl)-4-[2-(piperazin-1-yl)ethylamino]quinolin-3-yl}(cyclopropyl)methanone]	3.9 µM	0.017 µM	0.92 µM	1.5 µM	1.2 µM	–	–	–	–	–	–
O=C(c1cnc2ccc(-c3ccc(O)c(OC(F)(F)F)c3)cc2c1N1CCC(CN2CCCC2)CC1)C1CC1 [Example 313, Cyclopropyl{6-[4-hydroxy-3-(trifluoromethoxy)phenyl]-4-[4-(pyrrolidin-1-ylmethyl]piperidin-1-yl}quinolin-3-yl)methanone]	3.2 µM	0.012 µM	0.67 µM	1.3 µM	0.8 µM	–	–	–	–	–	–
COc1cc(-c2ccc3ncc(C(=O)C4CC4)c(-c4ccc(CN(C)C)cc4)c3c2)cc(Cl)c1O [Example 356]	3.5 µM	0.0042 µM	0.46 µM	0.87 µM	0.45 µM	–	–	–	–	–	–
COc1cc(-c2ccc3ncc(S(C)(=O)=O)c(N4CCC(C(C)N(C)C)CC4)c3c2)cc(Cl)c1O (centres unmarked) [Example 245, 2-Chloro-4-[4-{4-[1-(dimethylamino)ethyl]piperidin-1-yl}-3-(methylsulfonyl)quinolin-6-yl]-6-methoxyphenol]	2.3 µM	0.0016 µM	0.35 µM	0.74 µM	0.25 µM	–	–	–	–	–	–
O=C(c1cnc2ccc(-c3cc(F)c(O)c(Cl)c3)cc2c1N1CCC(CN2CCCC2)CC1)C1CC1 [Example 283, {6-(3-Chloro-5-fluoro-4-hydroxyphenyl)-4-[4-(pyrrolidin-1-ylmethyl)piperidin-1-yl]quinolin-3-yl}(cyclopropyl)methanone]	3 µM	0.0029 µM	0.35 µM	0.72 µM	0.54 µM	–	–	–	–	–	–
COc1cc(-c2cc3c(N[C@H]4CC[C@H](N)CC4)c(C(=O)C4CC4)cnc3cc2F)cc(Cl)c1O [Example 284, {4-[trans-4-aminocyclohexylamino]-6-(3-chloro-4-hydroxy-5-methoxyphenyl)-7-fluoroquinolin-3-yl}(cyclopropyl)methanone]	2.2 µM	0.013 µM	0.62 µM	1.7 µM	0.49 µM	–	–	–	–	–	–
CN(C)[C@H]1CC[C@H](CNc2c(C(=O)C3CC3)cnc3ccc(-c4cc(F)c(O)c(Cl)c4)cc23)CC1 [Example 327]	3 µM	0.0055 µM	0.48 µM	1 µM	0.42 µM	–	–	–	–	–	–
COc1cc(-c2ccc3ncc(C(=O)C4CC4)c(N4CCC(C(C)N(C)C)CC4)c3c2)ccc1O (centres unmarked) [Example 187, Cyclopropyl(4-{4-[1-(dimethylamino)ethyl]piperidin-1-yl}-6-(4-hydroxy-3-methoxyphenyl)quinolin-3-yl)methanone]	2.2 µM	0.0034 µM	0.44 µM	2 µM	0.65 µM	–	–	–	–	–	–
COc1cc(-c2ccc3ncc(C(=O)C4CC4)c(NC4CCN(C)CC4)c3c2)cc(Cl)c1O [Example 249]	4.4 µM	0.0079 µM	0.83 µM	1.3 µM	0.3 µM	–	–	–	–	–	–
N[C@H]1CC[C@H](Nc2c(C(=O)C3CC3)cnc3ccc(-c4ccc(O)cc4)cc23)CC1 [Example 55, {4-[trans-4-Aminocyclohexylamino]-6-(4-hydroxyphenyl)quinolin-3-yl}(cyclopropyl)methanone]	2 µM	0.021 µM	0.2 µM	0.43 µM	0.48 µM	–	–	–	–	–	–
COc1cc(-c2ccc3ncc(C(=O)C4CC4)c(N4CCC(N5CCN(C)CC5)CC4)c3c2)cc(Cl)c1O [Example 351, {6-(3-Chloro-4-hydroxy-5-methoxyphenyl)-4-[4-(4-methylpiperazin-1-yl)piperidin-1-yl]quinolin-3-yl}(cyclopropyl)methanone]	3 µM	0.0022 µM	0.34 µM	0.67 µM	0.33 µM	–	–	–	–	–	–
N[C@H]1CC[C@H](Nc2c(C(=O)C3CC3)cnc3ccc(-c4cc(F)c(O)c(Cl)c4)cc23)CC1 [Example 179, {4-[trans-4-Aminocyclohexylamino]-6-(3-chloro-5-fluoro-4-hydroxyphenyl)quinolin-3-yl}(cyclopropyl)methanone]	5.2 µM	0.0065 µM	0.11 µM	0.22 µM	0.85 µM	–	–	–	–	–	–
CC(C)C(=O)c1cnc2ccc(-c3cc(Cl)c(O)c(Cl)c3)cc2c1N[C@H]1CC[C@H](N)CC1 [Example 225(b), 1-{4-[trans-4-Aminocyclohexylamino]-6-(3,5-dichloro-4-hydroxyphenyl)quinolin-3-yl}-2-methylpropan-1-one dihydrochloride]	–	–	–	–	–	1.6 µM	0.0028 µM	0.048 µM	0.17 µM	0.22 µM	–
N[C@H]1CC[C@H](Nc2c(C(=O)C3CC3)cnc3ccc(-c4cc(Cl)c(O)cc4Cl)cc23)CC1 [Example 160, {4-[trans-4-Aminocyclohexylamino]-6-(2,5-dichloro-4-hydroxyphenyl)quinolin-3-yl}(cyclopropyl)methanone]	1.2 µM	0.072 µM	0.28 µM	0.39 µM	0.68 µM	–	–	–	–	–	–
CN(C)Cc1ccc(Nc2c(C(=O)C3CC3)cnc3ccc(-c4cc(Cl)c(O)c(Cl)c4)cc23)cc1 [Example 345, Cyclopropyl[6-(3,5-dichloro-4-hydroxyphenyl)-4-{4-[(dimethylamino)methyl]phenylamino}quinolin-3-yl]methanone]	0.67 µM	0.0032 µM	0.054 µM	0.1 µM	0.051 µM	–	–	–	–	–	–
CCN(CC)C1CCC(Nc2c(C(=O)C3CC3)cnc3ccc(-c4cc(Cl)c(O)c(OC)c4)cc23)CC1 (centres unmarked) [Example 185(a), {6-(3-Chloro-4-hydroxy-5-methoxyphenyl)-4-[4-(diethylamino)cyclohexylamino]quinolin-3-yl}(cyclopropyl)methanone]	6.9 µM	0.0026 µM	0.59 µM	2 µM	–	–	–	–	–	–	0.42 µM
CCN(CC)C1CCC(Nc2c(C(C)=O)cnc3ccc(-c4ccc(O)c(Cl)c4)cc23)CC1 (centres unmarked) [Example 335, 1-{6-(3-Chloro-4-hydroxyphenyl)-4-[4-(diethylamino)cyclohexylamino]quinolin-3-yl}ethanone]	1.2 µM	0.021 µM	0.1 µM	0.65 µM	0.29 µM	–	–	–	–	–	–
COc1cc(-c2ccc3ncc(C(=O)C4CC4)c(N[C@H]4CC[C@H](N5CCCC5)CC4)c3c2)cc(Cl)c1O [Example 343, {6-(3-Chloro-4-hydroxy-5-methoxyphenyl)-4-[trans-4-(pyrrolidin-1-yl)cyclohexylamino]quinolin-3-yl}(cyclopropyl)methanone]	3.4 µM	0.0021 µM	0.33 µM	0.68 µM	0.2 µM	–	–	–	–	–	–
